Results published in ChEMBL document CHEMBL4346695, “Thiophenol-formaldehyde triazole causes apoptosis induction in ovary cancer cells and prevents tumor growth formation in mice model” (2019).
Calls of active or inactive are those of the source. The rule behind the calls is not given here.

Experiments:
Caov-3 cell line [1] = assay: Growth inhibition of human Caov3 cells incubated for 48 hrs by MTT assay; type: functional, cell-based
Homo sapiens [2] = organism: Homo sapiens; assay: Growth inhibition of human ES2 cells incubated for 48 hrs by MTT assay; type: functional
Caov-4 [3] = assay: Growth inhibition of human Caov4 cells incubated for 48 hrs by MTT assay; type: functional, cell-based
Homo sapiens [4] = organism: Homo sapiens; assay: Growth inhibition of human ES2 cells at 0.5 uM incubated for 48 hrs by MTT assay; type: functional
Caov-4 [5] = assay: Growth inhibition of human Caov4 cells at 0.5 uM incubated for 48 hrs by MTT assay; type: functional, cell-based
[6] = Growth inhibition of human ES2 cells at 2 uM incubated for 48 hrs by MTT assay relative to control; type: functional; settings: ES-2, 48 h, read-out: GI
Homo sapiens [7] = organism: Homo sapiens; assay: Growth inhibition of human ES2 cells at 0.25 uM incubated for 48 hrs by MTT assay; type: functional
Caov-4 [8] = assay: Growth inhibition of human Caov4 cells at 0.25 uM incubated for 48 hrs by MTT assay; type: functional, cell-based
Caov-3 cell line [9] = assay: Induction of apoptosis in human Caov3 cells assessed as formation of apoptotic nuclei at 1.5 uM incubated for 48 hrs by Hoechst 33342 staining based fluorescent microscopic method relative to control; type: functional
Caov-3 cell line [10] = assay: Induction of apoptosis in human Caov3 cells assessed as formation of apoptotic nuclei at 2.0 uM incubated for 48 hrs by Hoechst 33342 staining based fluorescent microscopic method relative to control; type: functional
Caov-3 cell line [11] = assay: Induction of Cell cycle arrest in human Caov3 cells assessed as accumulation at G0/G1 phase at 1 uM incubated for 48 hrs by propidium iodide staining based flow cytometric analysis (reference value: 57.77%); type: functional
Caov-3 cell line [12] = assay: Induction of Cell cycle arrest in human Caov3 cells assessed as accumulation at S phase at 1.5 uM incubated for 48 hrs by propidium iodide staining based flow cytometric analysis (reference value: 18.89%); type: functional
Caov-3 cell line [13] = assay: Induction of Cell cycle arrest in human Caov3 cells assessed as accumulation at G2/M phase at 1.5 uM incubated for 48 hrs by propidium iodide staining based flow cytometric analysis (reference value: 22.68%); type: functional
Caov-3 cell line [14] = assay: Antiinvasive activity in human Caov3 cells at 0.25 uM incubated for 48 hrs using hematoxylin by microscopy-based transwell assay; type: functional, cell-based
Caov-3 cell line [15] = assay: Antiinvasive activity in human Caov3 cells at 0.5 uM incubated for 48 hrs using hematoxylin by microscopy-based transwell assay relative to control; type: functional
Caov-3 cell line [16] = assay: Antiinvasive activity in human Caov3 cells at 1.0 uM incubated for 48 hrs using hematoxylin by microscopy-based transwell assay relative to control; type: functional
Caov-3 cell line [17] = assay: Antiinvasive activity in human Caov3 cells at 2.0 uM incubated for 48 hrs using hematoxylin by microscopy-based transwell assay relative to control; type: functional
Caov-3 cell line [18] = assay: Inhibition of cell migration in human Caov3 cells assessed as decrease in migration potential at 0.5 to 2.0 uM incubated for 48 hrs by wound healing assay (reference value: 89.65%); type: functional
Caov-3 cell line [19] = assay: Inhibition of metastasis in human Caov3 cells assessed as decrease in MMP2 expression level at 0.5 uM incubated for 48 hrs by Western blot analysis; type: functional, cell-based
Caov-3 cell line [20] = assay: Inhibition of metastasis in human Caov3 cells assessed as decrease in MMP9 expression level at 0.5 uM incubated for 48 hrs by Western blot analysis; type: functional, cell-based
Caov-3 cell line [21] = assay: Inhibition of metastasis in human Caov3 cells assessed as decrease in FAK phosphorylation level at 0.5 to 5.0 uM incubated for 48 hrs by Western blot analysis; type: functional, cell-based
Caov-3 cell line [22] = assay: Antitumor activity against human Caov3 cells xenografted in BALB/c nude mouse assessed as tumor size at 10 mg/kg, ip incubated for 1 hr post tumor implantation and measured after 20 days (reference value: 1956 +/- 367 mm3); type: functional
Caov-3 cell line [23] = assay: Antimetastasis activity against human Caov3 cells xenografted in BALB/c nude mouse assessed as reduction of metastasis in intestine at 10 mg/kg, ip incubated for 1 hr post tumor implantation and measured after 20 days by H and E staining-based assay; type: functional, organism-based
Caov-3 cell line [24] = assay: Antimetastasis activity against human Caov3 cells xenografted in BALB/c nude mouse assessed as reduction of metastasis in spleen at 10 mg/kg, ip incubated for 1 hr post tumor implantation and measured after 20 days by H and E staining-based assay; type: functional, organism-based
Caov-3 cell line [25] = assay: Antimetastasis activity against human Caov3 cells xenografted in BALB/c nude mouse assessed as reduction of metastasis in peritoneal cavity at 10 mg/kg, ip incubated for 1 hr post tumor implantation and measured after 20 days by H and E staining-based assay; type: functional, organism-based
Caov-3 cell line [26] = assay: Antimetastasis activity against human Caov3 cells xenografted in BALB/c nude mouse assessed as reduction in vWF expression in lungs lesions at 10 mg/kg, ip incubated for 1 hr post tumor implantation and measured after 20 days by DAB and hematoxylin staining based immunohistochemical analysis relative to control; type: functional; parameters: scale not given: the % may be the effect or the level left
Caov-3 cell line [27] = assay: Antimetastasis activity against human Caov3 cells xenografted in BALB/c nude mouse assessed as reduction in vWF expression in intestinal lesions at 10 mg/kg, ip incubated for 1 hr post tumor implantation and measured after 20 days by DAB and hematoxylin staining based immunohistochemical analysis relative to control; type: functional; parameters: scale not given: the % may be the effect or the level left
Caov-3 cell line [28] = assay: Antimetastasis activity against human Caov3 cells xenografted in BALB/c nude mouse assessed as reduction in vWF expression in liver lesions at 5 mg/kg, ip incubated for 1 hr post tumor implantation and measured after 20 days by DAB and hematoxylin staining based immunohistochemical analysis; type: functional, organism-based
Caov-3 cell line [29] = assay: Antimetastasis activity against human Caov3 cells xenografted in BALB/c nude mouse assessed as reduction in vWF expression in lungs lesions at 5 mg/kg, ip incubated for 1 hr post tumor implantation and measured after 20 days by DAB and hematoxylin staining based immunohistochemical analysis; type: functional, organism-based
Caov-3 cell line [30] = assay: Antimetastasis activity against human Caov3 cells xenografted in BALB/c nude mouse assessed as reduction in vWF expression in intestinal lesions at 5 mg/kg, ip incubated for 1 hr post tumor implantation and measured after 20 days by DAB and hematoxylin staining based immunohistochemical analysis; type: functional, organism-based
Caov-3 cell line [31] = assay: Antimetastasis activity against human Caov3 cells xenografted in BALB/c nude mouse assessed as reduction in vWF expression in peritoneal lesions at 5 mg/kg, ip incubated for 1 hr post tumor implantation and measured after 20 days by DAB and hematoxylin staining based immunohistochemical analysis; type: functional, organism-based
Caov-3 cell line [32] = assay: Antimetastasis activity against human Caov3 cells xenografted in BALB/c nude mouse assessed as reduction in infiltration of macrophages in liver lesions at 10 mg/kg, ip incubated for 1 hr post tumor implantation and measured after 20 days by DAB and hematoxylin staining based immunohistochemical analysis relative to control; type: functional; parameters: scale not given: the % may be the effect or the level left
Caov-3 cell line [33] = assay: Antimetastasis activity against human Caov3 cells xenografted in BALB/c nude mouse assessed as reduction in infiltration of macrophages in peritoneal lesions at 10 mg/kg, ip incubated for 1 hr post tumor implantation and measured after 20 days by DAB and hematoxylin staining based immunohistochemical analysis relative to control; type: functional; parameters: scale not given: the % may be the effect or the level left
Caov-3 cell line [34] = assay: Antimetastasis activity against human Caov3 cells xenografted in BALB/c nude mouse assessed as reduction in infiltration of macrophages in liver lesions at 5 mg/kg, ip incubated for 1 hr post tumor implantation and measured after 20 days by DAB and hematoxylin staining based immunohistochemical analysis; type: functional, organism-based

In the case of `Fc1ccccc1-n1cc(COCc2ccccc2S)nn1`, the “growth inhibition (GI)” value (Caov-3 cell line [1]) is reported as “Dose-dependent effect”, the “growth inhibition (GI)” value (Homo sapiens [2]) is reported as “Dose-dependent effect” and the “growth inhibition (GI)” value (Caov-4 [3]) is reported as “Dose-dependent effect”. For the same compound, the “growth inhibition (GI)” value (Homo sapiens [4]) was “Active”, the “growth inhibition (GI)” value (Caov-4 [5]) was “Active” and the inhibition of growth at 2 µM [6] was 29%. The “growth inhibition (GI)” value (Homo sapiens [7]) was “inactive”, the “growth inhibition (GI)” value (Caov-4 [8]) was “inactive” and the Activity (Caov-3 cell line [9]) was 45.89%. It also gave an Activity (Caov-3 cell line [10]) of 62.53%, an Activity (Caov-3 cell line [11]) of 61.63% and an Activity (Caov-3 cell line [12]) of 14.61%. The Activity (Caov-3 cell line [13]) was 20.07%, the Activity (Caov-3 cell line [14]) was “inactive” and the Activity (Caov-3 cell line [15]) was 84.54%. The Activity (Caov-3 cell line [16]) was 67.76%, the Activity (Caov-3 cell line [17]) was 8.62% and the “inhibition (INH)” value (Caov-3 cell line [18]) was 6.43%. The inhibition (Caov-3 cell line [19]) was “Active”, the inhibition (Caov-3 cell line [20]) was “Active” and the inhibition (Caov-3 cell line [21]) was “Active”. The Activity (Caov-3 cell line [22]) was 213.34 mm3, the Activity (Caov-3 cell line [23]) was “Active” and the Activity (Caov-3 cell line [24]) was “Active”. For the same compound, the Activity (Caov-3 cell line [25]) was “Active”, the Activity (Caov-3 cell line [26]) was 8% and the Activity (Caov-3 cell line [27]) was 6%. For the same compound, the Activity (Caov-3 cell line [28]) was “inactive”, the Activity (Caov-3 cell line [29]) was “inactive” and the Activity (Caov-3 cell line [30]) was “inactive”. For the same compound, the Activity (Caov-3 cell line [31]) was “inactive”, the Activity (Caov-3 cell line [32]) was 8% and the Activity (Caov-3 cell line [33]) was 5%. The Activity (Caov-3 cell line [34]) was “inactive”.
